This passage reports target mRNA inhibition results from the OligoGym collection.

Values joined by “and” are separate entries in the source; they are usually repeats but may differ in a detail not shown here. Equal values may be shown once. After the bases stand the sugars from the 5' end (letter, count) and the backbone: PS all phosphorothioate, else s phosphorothioate and o phosphodiester by linkage. Methylation of C is not given here. e = 2'-O-(2-methoxyethyl) (MOE); k = constrained ethyl (cEt); d = 2'-deoxy (DNA)

This data set addresses MALAT1. To be noted: ASO, A431, 0.005 µM.
In the case of AATCCCCTAGGGAAGG (sugars k3 d10 k3, PS), the target mRNA inhibition was 5%.

Take AATGCTAGTCCTCAGG (sugars k3 d10 k3, PS): the target mRNA inhibition is 57% and 78%.

Take AATGGAGGTATGACAT (sugars k3 d10 k3, PS): the target mRNA inhibition was 5%.

As to AATTAATGCTAGTCCT (sugars k3 d10 k3, PS), the target mRNA inhibition was 16%.

As for AATTACTCTTGATCTT (sugars k3 d10 k3, PS), the target mRNA inhibition was determined as 51%.

Consider ACAAACTGCTTACAGA (sugars k3 d10 k3, PS), for which the target mRNA inhibition came to 17%.

As to ACAAGTTACATGTTCC (sugars k3 d10 k3, PS), the target mRNA inhibition was 21%.

Regarding ACAATCAAGTCAAGCT (sugars k3 d10 k3, PS), the target mRNA inhibition was 15%.

Regarding ACACCCGGAAATCGGC (sugars k3 d10 k3, PS), the target mRNA inhibition came out at 8%.

ACACTTCTCTTGACCT (sugars k3 d10 k3, PS): the target mRNA inhibition is 60% and 44% and 50%.

ACAGATTAGTAGTCAA (sugars k3 d10 k3, PS): the target mRNA inhibition turned out to be 9%.

For the sequence ACAGTAGGTATAGTTT (sugars k3 d10 k3, PS), the target mRNA inhibition was 24%.

Regarding ACATGCCAGTTACTCC (sugars k3 d10 k3, PS), the target mRNA inhibition was determined as 39%.

For ACCAAATTGCACTCGC (sugars k3 d10 k3, PS), the target mRNA inhibition was found to be 40%.

For ACCAATCCCAACCGTA (sugars k3 d10 k3, PS), the target mRNA inhibition came out at 18%.

As to ACCACAACAATTTAGA (sugars k3 d10 k3, PS), the target mRNA inhibition is -10%.

ACCACCACCTGGAATG (sugars k3 d10 k3, PS): the target mRNA inhibition worked out at 22%.

For the sequence ACCACCTGGAATGGCC (sugars k3 d10 k3, PS), the target mRNA inhibition worked out at 15%.

Take ACCCACCAAAGACCTC (sugars k3 d10 k3, PS): the target mRNA inhibition came to 9%.

As for ACCCAGCATTACAGTT (sugars k3 d10 k3, PS), the target mRNA inhibition was determined as 8%.

On to ACCCCTGACTTTCTGG (sugars k3 d10 k3, PS), for which the target mRNA inhibition worked out at 18%.

Turning to ACCGATTATGGATCAT (sugars k3 d10 k3, PS), the target mRNA inhibition was determined as 36%.

In the case of ACCGCTTGAGATTTGG (sugars k3 d10 k3, PS), the target mRNA inhibition was 32% and 41%.

For the sequence ACCGGAATTCGATCAC (sugars k3 d10 k3, PS), the target mRNA inhibition is 35%.

ACCGTTTTTCAGCTTC (sugars k3 d10 k3, PS): the target mRNA inhibition is -30%.

Turning to ACCTGGAATGGCCAGC (sugars k3 d10 k3, PS), the target mRNA inhibition was found to be 21%.

Regarding ACCTTAGGATAATAGC (sugars k3 d10 k3, PS), the target mRNA inhibition came to 39%.

Take ACCTTCTAACTTCTGC (sugars k3 d10 k3, PS): the target mRNA inhibition was 64% and 42%.

For ACCTTGAGTCATTTGC (sugars k3 d10 k3, PS), the target mRNA inhibition was 66%.

Regarding ACGAAACATTGGCACA (sugars k3 d10 k3, PS), the target mRNA inhibition is 62% and 40%.

Regarding ACGAAACTCCCCCATT (sugars k3 d10 k3, PS), the target mRNA inhibition was 36%.

On to ACGAACTGCTGCTTGC (sugars k3 d10 k3, PS), for which the target mRNA inhibition is 66% and 49% and 50%.

For ACGGAGAACAACTCGC (sugars k3 d10 k3, PS), the target mRNA inhibition came out at 1%.

With ACTAAGCTACTATATT (sugars k3 d10 k3, PS), the target mRNA inhibition is 39%.

Turning to ACTATATTTAAGGCCT (sugars k3 d10 k3, PS), the target mRNA inhibition was 40%.

Regarding ACTATTTCTCCAGGAC (sugars k3 d10 k3, PS), the target mRNA inhibition stood at 20%.

On to ACTCAGCCTTTATCAC (sugars k3 d10 k3, PS), for which the target mRNA inhibition is -5%.

In the case of ACTCCAAGAACTAGCA (sugars k3 d10 k3, PS), the target mRNA inhibition came to 11%.

For ACTCGCATCACCGGAA (sugars k3 d10 k3, PS), the target mRNA inhibition was determined as 15%.

With ACTCTAAGATTGTAAG (sugars k3 d10 k3, PS), the target mRNA inhibition came to 25%.

ACTCTTGATCTTGAAT (sugars k3 d10 k3, PS): the target mRNA inhibition stood at 43%.

Consider ACTGTAAACCTGTGGT (sugars k3 d10 k3, PS), for which the target mRNA inhibition is -6%.

On to ACTTACTGGTTTAAGT (sugars k3 d10 k3, PS), for which the target mRNA inhibition is -3%.

For the sequence ACTTTTAATCATACTC (sugars k3 d10 k3, PS), the target mRNA inhibition is 21%.

AGAAACCTACAACACC (sugars k3 d10 k3, PS): the target mRNA inhibition was -6%.

Take AGAACTAGCACCTGCA (sugars k3 d10 k3, PS): the target mRNA inhibition came out at 15%.

For the sequence AGAACTAGTGGTTCCC (sugars k3 d10 k3, PS), the target mRNA inhibition was -3%.

AGAACTGCTCTAGTTT (sugars k3 d10 k3, PS): the target mRNA inhibition was -6%.

As to AGACGGAGAACAACTC (sugars k3 d10 k3, PS), the target mRNA inhibition was -14%.

For the sequence AGAGTAACTACCAGCC (sugars k3 d10 k3, PS), the target mRNA inhibition is 55% and 76%.

In the case of AGATTCCGTAACTTTA (sugars k3 d10 k3, PS), the target mRNA inhibition is 78% and 92%.

On to AGATTGTAAGCATTTA (sugars k3 d10 k3, PS), for which the target mRNA inhibition was 42%.

For AGCACATCATGCTATT (sugars k3 d10 k3, PS), the target mRNA inhibition came out at 26%.

On to AGCACTTATCCCTAAC (sugars k3 d10 k3, PS), for which the target mRNA inhibition came out at 40%.

In the case of AGCAGAAGCCCCTGCG (sugars k3 d10 k3, PS), the target mRNA inhibition is -1%.

On to AGCAGCGGGATCAGAA (sugars k3 d10 k3, PS), for which the target mRNA inhibition amounted to 19%.

Turning to AGCCAAGCCGCCTGCT (sugars k3 d10 k3, PS), the target mRNA inhibition came out at 20%.

As for AGCCTTCAGAGATTCA (sugars k3 d10 k3, PS), the target mRNA inhibition was 75% and 91%.

For the sequence AGCGGTACACTCCTTC (sugars k3 d10 k3, PS), the target mRNA inhibition was 50% and 43%.

With AGCTACAACAAGTAAG (sugars k3 d10 k3, PS), the target mRNA inhibition came to 12%.

With AGCTACTTAGCTGTGG (sugars k3 d10 k3, PS), the target mRNA inhibition is 34%.

In the case of AGCTCCTGACAAATTA (sugars k3 d10 k3, PS), the target mRNA inhibition was determined as 15%.

Regarding AGCTGAACTATCACAA (sugars k3 d10 k3, PS), the target mRNA inhibition worked out at 5%.

For the sequence AGCTGAGGCTTCCCGG (sugars k3 d10 k3, PS), the target mRNA inhibition amounted to 12%.

In the case of AGCTGTTTAAGTCACC (sugars k3 d10 k3, PS), the target mRNA inhibition was 62% and 57%.

Regarding AGCTTGACAAGCAATT (sugars k3 d10 k3, PS), the target mRNA inhibition turned out to be 16%.

On to AGGACTTGGCAGTCTG (sugars k3 d10 k3, PS), for which the target mRNA inhibition came to 30%.

As to AGGATCCAAGCTACTG (sugars k3 d10 k3, PS), the target mRNA inhibition was -13%.

On to AGGATGAAATGCCTCT (sugars k3 d10 k3, PS), for which the target mRNA inhibition was determined as 22%.

In the case of “AGGCAAACGAAACATTGGCA (sugars e5 d10 e5, PS)”, the target mRNA inhibition was 3% and 12%.

On to AGGCAAATCGCCATGG (sugars k3 d10 k3, PS), for which the target mRNA inhibition came to 5%.

Regarding AGGCAGTTATATTAGG (sugars k3 d10 k3, PS), the target mRNA inhibition was 26%.

On to AGGGACAGTAGGTATA (sugars k3 d10 k3, PS), for which the target mRNA inhibition is 16%.

Take AGGTATGACATATAAT (sugars k3 d10 k3, PS): the target mRNA inhibition was 35%.

Take AGTAACCTATTGACTA (sugars k3 d10 k3, PS): the target mRNA inhibition was -16%.

As for AGTAAGAATCTCAGGG (sugars k3 d10 k3, PS), the target mRNA inhibition was found to be 45%.

In the case of AGTAAGCCCCACCCCC (sugars k3 d10 k3, PS), the target mRNA inhibition worked out at 29%.

Turning to AGTAGACCAACTAAGC (sugars k3 d10 k3, PS), the target mRNA inhibition amounted to 25%.

As for AGTAGGCCAGACCAAC (sugars k3 d10 k3, PS), the target mRNA inhibition was found to be 4%.

Take AGTAGGTATAGTTTAC (sugars k3 d10 k3, PS): the target mRNA inhibition was found to be 10%.

As to AGTATTACTCTAATCA (sugars k3 d10 k3, PS), the target mRNA inhibition came to 23%.

Consider AGTATTATAATAGAGC (sugars k3 d10 k3, PS), for which the target mRNA inhibition was 20%.

Turning to AGTCCTAGCTTCATCA (sugars k3 d10 k3, PS), the target mRNA inhibition stood at 27%.

With AGTCTACAAGTTACAT (sugars k3 d10 k3, PS), the target mRNA inhibition amounted to 3%.

For the sequence AGTGTACTATCCCATC (sugars k3 d10 k3, PS), the target mRNA inhibition is 78% and 91%.

In the case of AGTGTTTACACTGCTC (sugars k3 d10 k3, PS), the target mRNA inhibition came out at 22%.

AGTTACTTGCCAACTT (sugars k3 d10 k3, PS): the target mRNA inhibition was found to be 7%.

Take AGTTTGTCAATAGTAC (sugars k3 d10 k3, PS): the target mRNA inhibition stood at 42%.

Turning to ATAACAAGTTTAAGGG (sugars k3 d10 k3, PS), the target mRNA inhibition was 41%.

For ATAATAGAGCTACTTA (sugars k3 d10 k3, PS), the target mRNA inhibition worked out at 19%.

With ATACAAACTGCTTACA (sugars k3 d10 k3, PS), the target mRNA inhibition was -30%.

Consider ATACCCTTCTGTTAAC (sugars k3 d10 k3, PS), for which the target mRNA inhibition was 2%.

As for ATAGACCCCTGACTTT (sugars k3 d10 k3, PS), the target mRNA inhibition stood at 34%.

Consider ATAGAGCTACTTAGCT (sugars k3 d10 k3, PS), for which the target mRNA inhibition was 19%.

For the sequence ATAGTTCAACCCACCA (sugars k3 d10 k3, PS), the target mRNA inhibition was determined as 21%.

As to ATAGTTTACCACCTTT (sugars k3 d10 k3, PS), the target mRNA inhibition came to 39%.

As for ATATTGCCGACCTCAC (sugars k3 d10 k3, PS), the target mRNA inhibition worked out at 26%.

ATATTTGCCCCTCCCC (sugars k3 d10 k3, PS): the target mRNA inhibition is 27%.

Consider ATCAAACACTGGTTCC (sugars k3 d10 k3, PS), for which the target mRNA inhibition is 48%.
